US10640748B2, “Oligodendroglial cell culturing methods and in methods for treating neurodegenerative disorders by using thyroid hormones or analogues” (NeuOrphan Pty Ltd, priority 2014, dated 2020)
“Also recorded” adds a separate entry of the source.

Legend:
[1] = test system: rat RGCs and slc16a2 down-regulated OLs from Nkx2.1-GFP+ sorted cells; test: Co-culture myelination assay with slc16a2 down-regulated OLs; assay type: cell-based, rat; human; conditions: slc16a2 down-regulated OLs co-cultured with rat RGCs for 7 days
Source text: Retinae were dissected from P6 Sprague-Dawley rat pups (AEC #1121/2011/M). RGCs were purified according to the published immunopanning protocol (Deliyanti and Wilkinson-Berka, 2015; Watkins et al., 2008). Details of the RGC preparation are described in Supplemental Experimental Procedure. The RGC growth medium was changed every third day and cultures were maintained for 9 days. Pre-OLs from Nkx2.1-GFP+ cells at stage VI day 10, were FACS sorted according to O4 antibody labeling. O4+ sorted cells were then co-cultured with RGCs at a density of 20,000/well under 3 different conditions: T3 with 0.01% ethanol, 10 ng/mL DITPA, and 40 ng/mL T3 with DITPA in myelination medium (see Supplemental Experimental Procedure). […]
For quantification of myelination in vitro following knockdown of slc16a2, at least nine fields (×20 objective) were randomly selected and captured from each coverslip with a confocal microscope (Nikon A1 inverted). A myelination index (%) by mCherry+ cells (i.e. axons myelinated by mCherry+ cells) was calculated by: the number of mCherry+/MBP+ membrane, ensheathing the NF200+ axons/the total number of NF200+ axons. Furthermore, the viable ensheathing mCherry+/MBP+ OLs and mature mCherry+ OLs according to their morphology with multiple processes and membranous sheaths were counted and their % calculated.

[2] = test system: Pre-OLs from Nkx2.1-GFP+ sorted cultures at stage VI, day 21; test: Pharmacological blockade of MCT8 with Bosutinib, DAPI+ dead cells by flow cytometry; assay type: cell-based, human; conditions: co-administration of 10 ng/mL DITPA with Bosutinib, 48 hours
Description: (§1) Pre-OLs from Nkx2.1-GFP+ sorted cultures at stage VI, day 21 were treated with the pharmacological inhibitor of MCT8, bosutinib (LC Laboratories, B-1788, reconstituted in dimethyl sulfoxide, [DMSO]) at different concentrations (1 ng/mL, 10 ng/mL and 100 ng/mL) with co-administration of 10 ng/mL DITPA. An MTT assay and flow cytometry were then performed on the cells stained for DAPI after 48 hours of treatment, to analyze DAPI+ dead cells.

AHDS patients = conditions: cited from earlier work
[3] = test system: Pre-OLs from Nkx2.1-GFP+ sorted cultures at stage VI, day 21; test: MTT-based cytotoxicity assay under Bosutinib MCT8 blockade; assay type: cell-based, human; conditions: Bosutinib with 10 ng/mL DITPA, 48 hours
Description: as §1

[4] = test system: Pre-OLs from Nkx2.1-GFP+ sorted cultures at stage VI; test: Cell cycle analysis with BrdU (flow cytometry); assay type: cell-based, human
Description: BrdU cell cycle analysis was performed according to the manufacturer's protocol (BD Biosciences). For a detailed protocol, see Supplemental Experimental Procedures.
Pre-OLs from Nkx2.1-GFP+ sorted cultures at stage VI day 7 and day 21 were pulsed with BrdU for 1 hour. Cells were then treated with DNAse I for 45 minutes then collected using accutase (Life Technologies). Collected cells were fixed and permeabilized and stained with anti-BrdU conjugated with APC for 30 minutes at 4° C. Cells were washed and stained with 7-AAD. Cells were then analyzed on LSR-Fortessa (BD Biosciences). Unpulsed cells and pulsed cells without anti-BrdU staining served as a negative control.

[5] = cited from earlier work
[6] = test system: Nkx2.1-GFP sorted cells transduced with slc16a2 shRNA lentivirus; test: Apoptosis assay (cleaved caspase-3) after stable knockdown of slc16a2; assay type: cell-based; conditions: DITPA from 3 days post-LV-transduction
Description: Nkx2.1-GFP sorted cells at the end of stage VI or V were transduced with MOI of 10 in appropriate stage-specific medium containing polybrene (5 μg/mL, Sigma-Aldrich). Efficiency of transduction was validated by analyzing mCherry+ cells by flow cytometry and efficiency of knockdown was validated by analyzing the slc16a2 transcript level by qRT-PCR 72 hours post-transduction. An apoptosis assay was performed on cells either, treated with or without DITPA for 2 days from 72 hours post-transduction, then fixed. Cells were stained with monoclonal rat anti-mCherry (M11217, Life Technologies, 1:1,000), polyclonal rabbit anti-cleaved caspase-3 (9661, Cell Signaling Technology, 1:400) and DAPI (Life Technologies) then analyzed by confocal microscopy (Nikon A1 Inverted using a ×20 water objective lens). Apopotic OLs were defined as those mCherry-positive cells with cleaved caspase-3+ nuclei that were also condensed and fragmented as assessed by DAPI. The data were plotted as the number of cleaved caspase-3/mCherry+ cells divided by total number of mCherry+ cells.

SMILES: O=C(O)CCc1cc(I)c(Oc2ccc(O)cc2)c(I)c1 [DITPA, 3,5-Diiodothyropropionic acid]
- mCherry+/MBP+ myelinating OLs and mCherry+/MBP+ myelin segments [1]: found
- cell death (DAPI+ dead cells) under Bosutinib MCT8 blockade [2]: significant reduction in cell death; also recorded: DITPA treatment of differentiating OPCs overcomes the cell death initiated by the
- hypermetabolism (AHDS patients): reduce
- peripheral hyperthyroidism (AHDS patients): normalize
- survival rates (MTT assay) [3]: increased survival rates
- cell cycle exit ([4]; compared with T3): potentiates cell cycle exit faster than T3
- numbers of cells in S phase ([4]; day 7, compared with T3 alone): significant reduction
- solubility in water and aqueous solutions [5]: sparingly soluble
- cell death / apoptosis mediated by slc16a2 knock-down [6]: significantly reduced cell death; also recorded: Depicts an experiment which shows that DITPA rescues oligodendrocyte death
